{"source": "patent US7999119B2", "about": "“Compounds having CRTH2 antagonist activity” (Oxagen Limited, priority 2006, dated 2011)", "key": {"[1]": {"system": "PGD2 induced eosinophil shape change", "assay": "Human whole blood eosinophil shape change assay", "format": "cell-based", "conditions": "Homo sapiens, Eosinophil", "protocol": "Human Whole Blood Eosinophil Shape Change Assay\nCompounds 1 to 3 were assayed for their effect on PGD2 induced eosinophil shape change and were compared with Comparator Compounds A to G.\nShape Change Assay in Whole Blood\nCompounds (1 μl, 200× final concentration) were added directly to 200 μl whole blood, mixed well and incubated for 15 min, 37° C., 5% CO2. After this time, cell shape was fixed by addition of 300 μl Cytofix™ buffer (BD Biosciences), 15 min on ice. 10 ml RBC lysis buffer was added to the fixed cells, incubated 5 min, at room temperature and centrifuged, 300×g for 5 min. Supernatant (containing lysed red cells) was removed and the lysis step was repeated. Leukocytes were resuspended in 250 μl RPMI/10% FCS and shape change analysed by FACS. Eosinophils were gated out based on their autofluorescence and 2000 eosinophil events were counted per sample. Data were analysed in triplicate."}, "[2]": {"assay": "Pharmacokinetics following oral administration in the rat", "format": "in vivo", "conditions": "rat, 3 mg/kg, rat", "protocol": "Investigation of Pharmacokinetics of Compounds of General Formula (I) Following Oral Administration in the Rat\nRats were weighed on the day of dosing.\nThe test material was prepared as a 0.3 mg/mL suspension in 1% carboxy-methyl-cellulose (CMC).\nThree groups of 3 rats were dosed as follows:\nDoses were administered as a single oral dose using a gavage tube at a constant dose volume of 10 mL/kg.\nAt each sampling time point blood samples (approximately 0.3 mL) was taken from a catheter inserted into a lateral tail vein prior to the start of the experiment. The final blood sample (approximately 2 mL) from each animal was taken by cardiac puncture under isoflurane anaesthesia following which the animal was killed by exsanguination. Blood samples were taken into individual heparinised containers. Blood samples were collected at the following times post-dose:\nFollowing collection, the blood samples were centrifuged (approximately 10,000×g, 2 min at 4° C.) and the plasma stored as one aliquot at approximately −20° C. pending analysis of drug concentrations by LC-MS/MS.\nThe plasma samples were analysed for test material concentrations at BioDynamics using an LC-MS/MS method developed at BioDynamics."}, "[3]": {"system": "DK-PGD2-induced blood eosinophilia", "assay": "Inhibition of DK-PGD2-induced blood eosinophilia in rats", "format": "in vivo, rat", "conditions": "female rats, oral dosing 30 min before 10 μg DK-PGD2 intracardiac; ED50 from dose-response curve; the values are: ED50", "protocol": "Evaluation of Compounds of General Formula (I) as Inhibitors of 13,14-dihydro-15-keto prostaglandin D2 (DK-PGD2)-Induced Blood Eosinophilia in Rats\nThe test compound was dissolved in DMSO and diluted with water to give a final dosing volume of 2 ml/kg.\nFemale rats (175-250 g; UH colony) were dosed orally with test compound (or vehicle).\n30 min after dosing all animals were anaesthetised with isoflurane.\nFollowing induction of anaesthesia, animals receive an intracardiac injection of 10 μg DK-PGD2 in 0.3 ml heparinised (10 U/ml) saline. Control animals received an injection of 0.3 ml heparinised saline.\n60 min after the intracardiac injection, animals were injected with an overdose of pentobarbitone sodium and a blood sample was taken (into heparin) by cardiac puncture while the rat was anaesthetised but not dead.\nAn aliquot of blood (100 μl) was added to Turk's solution and the total leukocyte count determined with a haemocytometer.\nA further aliquot of blood (500 μl) was mixed with an equal volume of 4% Dextran (mw 500,000) and the erythrocytes allowed to settle. A cytospin preparation was made from the resulting leukocyte rich fraction.\nCytospin preparations were fixed with methanol (5 min) and stained with May-Grunwald (5 min) and Giemsa (15 min) stains. Finally cytospins were washed in phosphate buffer (pH6.8) and air dried.\nDifferential leukocyte counts were obtained from the cytospin preparations.\nBlood eosinophil numbers were determined from the total leukocyte count and the percentage eosinophils (differential count).\nBecause it was impractical to generate sufficient data in any given experiment, data were obtained over a number of replicate experiments. Data from these replicate experiments were pooled, to provide at least 5 animals in each group and a dose-response curve fitted following a significance test (Mann Whitney) to determine whether or not DK-PGD2 caused a significant increase in blood eosinophils (GraphPad, Prism). A difference between groups was taken to be significant when P<0.05. ED50 values were calculated from the dose-response curve."}, "[4]": {"conditions": "3 mg/kg p.o, individual male animals"}}, "note": "Values joined by “and” are separate entries in the source; they are usually repeats but may differ in a detail not shown here. Equal values may be shown once. Read-outs that look alike come from different tables or passages of the source.", "data": [{"smiles": "Cc1c(Cc2ccccc2S(=O)(=O)c2ccc(Cl)cc2)c2cc(F)ccc2n1CC(=O)O", "note": "[Compound 2, 2-(3-(2-(4-chlorophenylsulfonyl)benzyl)-5-fluoro-2-methyl-1H-indol-1-yl)acetic acid]", "values": [{"measurement": "IC50", "setting": "[1]; 10 nm PGD2-induced eosinophil shape change, human whole blood, read-out: Whole Blood IC50", "value": 2, "unit": "nM"}, {"measurement": "IC50", "setting": "[1]; Table 12 summary of whole blood eosinophil shape change IC50, read-out: IC50 (μmol)", "value": 2, "unit": "nM"}, {"measurement": "IC50", "setting": "[1]; whole blood eosinophil shape change IC50 converted to ng/mL, read-out: IC50", "value": 0.9, "unit": "ng/mL"}, {"measurement": "IC50", "setting": "[1]; read-out: IC50 in the whole blood eosinophil shape change assay", "value": 2, "unit": "nM"}, {"measurement": "concentration at 0.25 h", "setting": "[2]; male, plasma, po, 3 mg/kg oral, 0.25 h, individual male animals, read-out: Concentration in Blood", "value": 1570, "unit": "ng/mL"}, {"measurement": "concentration at 0.25 h", "setting": "[2]; male, plasma, po, 3 mg/kg oral, 0.25 h, mean, read-out: Concentration in Blood, Mean", "value": 1490, "unit": "ng/mL"}, {"measurement": "concentration at 0.5 h", "setting": "[2]; male, plasma, po, 3 mg/kg oral, 0.5 h, individual male animals, read-out: Concentration in Blood", "value": 2610, "unit": "ng/mL"}, {"measurement": "concentration at 0.5 h", "setting": "[2]; male, plasma, po, 3 mg/kg oral, 0.5 h, mean, read-out: Concentration in Blood, Mean", "value": 2220, "unit": "ng/mL"}, {"measurement": "concentration at 1 h", "setting": "[2]; male, plasma, po, 3 mg/kg oral, 1 h, individual male animals, read-out: Concentration in Blood", "value": 2960, "unit": "ng/mL"}, {"measurement": "concentration at 1 h", "setting": "[2]; male, plasma, po, 3 mg/kg oral, 1 h, mean, read-out: Concentration in Blood, Mean", "value": 2900, "unit": "ng/mL"}, {"measurement": "concentration at 2 h", "setting": "[2]; male, plasma, po, 3 mg/kg oral, 2 h, individual male animals, read-out: Concentration in Blood", "value": 2240, "unit": "ng/mL"}, {"measurement": "concentration at 2 h", "setting": "[2]; male, plasma, po, 3 mg/kg oral, 2 h, mean, read-out: Concentration in Blood, Mean", "value": 2500, "unit": "ng/mL"}, {"measurement": "concentration at 4 h", "setting": "[2]; male, plasma, po, 3 mg/kg oral, 4 h, individual male animals, read-out: Concentration in Blood", "value": 1130, "unit": "ng/mL"}, {"measurement": "concentration at 4 h", "setting": "[2]; male, plasma, po, 3 mg/kg oral, 4 h, mean, read-out: Concentration in Blood, Mean", "value": 1370, "unit": "ng/mL"}, {"measurement": "concentration at 6 h", "setting": "[2]; male, plasma, po, 3 mg/kg oral, 6 h, mean, read-out: Concentration in Blood, Mean", "value": 640, "unit": "ng/mL"}, {"measurement": "concentration at 8 h", "setting": "[2]; male, plasma, po, 3 mg/kg oral, 8 h, mean, read-out: Concentration in Blood, Mean", "value": 450, "unit": "ng/mL"}, {"measurement": "concentration at 12 h", "setting": "[2]; male, plasma, po, 3 mg/kg oral, 12 h, mean, read-out: Concentration in Blood, Mean", "value": 100, "unit": "ng/mL"}, {"measurement": "AUC(0-inf)", "setting": "[2]; male, plasma, po, 3 mg/kg p.o, individual male animals, read-out: AUCinf", "value": 13200, "unit": "ng·h/mL"}, {"measurement": "Cmax", "setting": "[2]; male, plasma, po, 3 mg/kg p.o, individual male animals, read-out: Cmax", "value": 2960, "unit": "ng/mL"}, {"measurement": "Tmax", "setting": "[2]; male, plasma, po, 3 mg/kg p.o, individual male animals, read-out: Tmax", "value": 1, "unit": "h"}, {"measurement": "AUC(0-inf)", "setting": "[2]; male, plasma, po, 3 mg/kg p.o, mean, summary without unit (Table 12), read-out: AUCinf (mean)", "value": 11700, "unit": "ng·h/mL"}, {"measurement": "Cmax", "setting": "[2]; male, plasma, po, 3 mg/kg p.o, mean, summary without unit (Table 12), read-out: Cmax (mean)", "value": 2950, "unit": "ng/mL"}, {"measurement": "AUC(0-inf)", "setting": "[2]; male, plasma, po, 3 mg/kg p.o, mean, read-out: AUCinf, Mean", "value": 11700, "unit": "ng·h/mL"}, {"measurement": "Cmax", "setting": "[2]; male, plasma, po, 3 mg/kg p.o, mean, read-out: Cmax, Mean", "value": 2950, "unit": "ng/mL"}, {"measurement": "Tmax", "setting": "[2]; male, plasma, po, 3 mg/kg p.o, mean, read-out: Tmax, Mean", "value": 1.3, "unit": "h"}, {"measurement": "half-life", "setting": "[2]; male, plasma, po, 3 mg/kg p.o, mean, read-out: T½, Mean (converted)", "value": 3.7, "unit": "h"}, {"measurement": "Concentration in Blood", "setting": "[2]; 3 mg/kg oral, 0.25 h, individual male animals", "value": "1297.7 ng/mL and 1608.1 ng/mL"}, {"measurement": "Concentration in Blood", "setting": "[2]; 3 mg/kg oral, 0.5 h, individual male animals", "value": "1770.2 ng/mL and 2276.6 ng/mL"}, {"measurement": "Concentration in Blood", "setting": "[2]; 3 mg/kg oral, 1 h, individual male animals", "value": "2367.1 ng/mL and 3366.1 ng/mL"}, {"measurement": "Concentration in Blood", "setting": "[2]; 3 mg/kg oral, 2 h, individual male animals", "value": "2536.9 ng/mL and 2717.6 ng/mL"}, {"measurement": "Concentration in Blood", "setting": "[2]; 3 mg/kg oral, 4 h, individual male animals", "value": "1319.1 ng/mL and 1666.5 ng/mL"}, {"measurement": "Concentration in Blood", "setting": "[2]; 3 mg/kg oral, 6 h, individual male animals", "value": "519.6 ng/mL and 368.3 ng/mL and 1032.6 ng/mL"}, {"measurement": "Concentration in Blood", "setting": "[2]; 3 mg/kg oral, 8 h, individual male animals", "value": "423.7 ng/mL and 186.7 ng/mL and 740.4 ng/mL"}, {"measurement": "Concentration in Blood", "setting": "[2]; 3 mg/kg oral, 12 h, individual male animals", "value": "144.7 ng/mL and 28.2 ng/mL and 128.1 ng/mL"}, {"measurement": "Concentration in Blood", "setting": "[2]; 3 mg/kg oral, 24 h, individual male animals", "value": "60.5 ng/mL and 0.0 ng/mL (2×)"}, {"measurement": "AUCinf", "setting": "[2]; [4]", "value": "10179 ng·h/mL and 15677 ng·h/mL"}, {"measurement": "Cmax", "setting": "[2]; [4]", "value": "2537.0 ng/mL and 3366.0 ng/mL"}, {"measurement": "Tmax", "setting": "[2]; [4]", "value": 2.0, "unit": "h"}, {"measurement": "T½", "setting": "[2]; [4]", "value": "6 hours and 2 hours (2×)"}, {"measurement": "Potency in inhibition of DK-PGD2-induced blood eosinophilia", "setting": "[3]", "value": 0.01, "unit": "mg/kg"}]}]}
